Type in all cases: in vivo
For one data set, the system named is Helicoverpa armigera. Kind of data set: LC50 determination, cotton leaf bioassay as in Example 2.
The next data set concerns Spodoptera littoralis. Described as above.
Data set [1] deals with Heliothis virescens. Kind of data set: Comparative insect bioassay on treated cotton leaves, neonate larvae in minipots. Particulars: after three days; for corrected % kill: Abbott's formula corrected. On the procedure: These were carried out between the synthetic peptide having the sequence depicted as SEQ ID No. 2 (also referred to as the GGK-445 peptide) and the insecticidal peptide obtainable from the fungus Paecilomyces farinosus (referred to as “445”) and described in International Patent Application Publication Number WO01/00841. This protein, having the sequence depicted as SEQ ID No. 41, was synthesised, purified and the N-terminal Glycine was acetylated.
(§1) Prior to the assay, twenty neonate Heliothis virescens larvae were gently brushed into each of three ‘minipot’ containers per treatment (i.e. three replicates per treatment). The peptide to be tested was diluted using sterile, deionised water to create a range of test concentrations for determination of a kill curve.
(§2) Three freshly excised cotton leaves per treatment had 0.05 ml of the appropriate peptide solution applied by pipette to the centre of the axial surface of each leaf. The droplet was then spread over a circular area in excess of the diameter of a minipot with a fine artists paint brush (a fresh paint brush being used for each compound to avoid contamination), the concentrations being applied from lowest to highest. The leaves were left in a fume cupboard just long enough for the surface deposit to dry, but care was taken to avoid excessive leaf wilting.
Once dry the leaves were placed, contaminated surface down over the appropriately labelled, pre-infested minipot and a lid snapped over it. The minipots were placed in plastic trays and placed in a controlled environment room at 25-27° C.
After three days the numbers of live larvae remaining were counted and percent mortality determined. Percent mortality for the peptide treatments was corrected in comparison with the water-treated control using the Abbott's formula. Damage to the leaf was also assessed and represented as percent feeding inhibition.

A further data set concerns Spodoptera exigua. Kind of data set: LC50 determination, cotton leaf bioassay as in Example 2. Particulars: individual test, logit analysis.
Data set [2] deals with Heliothis virescens. The description is as above. The following applies: individual test, logit analysis. Here is the method: as §1, §2
Once dry the leaves were placed, contaminated surface down over the appropriately labelled, pre-infested minipot and a lid snapped over it. […]
After three days the numbers of live larvae remaining were counted and percent mortality determined. […] Damage to the leaf was also assessed and represented as percent feeding inhibition.
Mean LC50 values were determined for the synthetic peptide, GGK-445, having the amino acid sequence designated in SEQ ID No. 2. […]

The mark [3] stands for this setting: individual test, logit analysis.

Consider two molecules from US20040250313A1, “Insecticidal proteins and synergistic combinations thereof” (priority 2001, published 2004).

“And” between values parts separate entries of the source, which are not always exact repeats. Equal entries are not always repeated. Positions of bridges follow the written chain, without caps; N, C: chain ends. Residues, ends and D or L forms follow the SMILES beside them. No end group written: not given here.

Regarding `CC[C@H](C)[C@@H]1NC(=O)[C@@H]2CSSC[C@@H]3NC(=O)[C@H](CCCCN)NC(=O)[C@H](C(C)C)NC(=O)CNC(=O)[C@H](C)NC(=O)[C@@H]4CCCN4C(=O)[C@H]([C@@H](C)O)NC(=O)[C@@H](NC(=O)[C@@H](NC(=O)[C@H](CCCCN)NC(=O)CNC(=O)CN)[C@@H](C)CC)CSSC[C@H](NC(=O)[C@H](CSSC[C@@H](C(=O)N[C@@H](CCCNC(=N)N)C(=O)O)NC(=O)[C@H](C(C)C)NC(=O)[C@H](CCCCN)NC(=O)[C@H](CC(N)=O)NC(=O)[C@H](CC(N)=O)NC(=O)[C@H](C(C)C)NC(=O)CNC(=O)CNC1=O)NC(=O)[C@@H]1CCCN1C(=O)[C@H](CC(C)C)NC(=O)[C@H](C)NC(=O)[C@H](C)NC(=O)[C@@H]1CCCN1C3=O)C(=O)N1CCC[C@H]1C(=O)NCC(=O)N[C@@H](CC(C)C)C(=O)N[C@@H](CCCNC(=N)N)C(=O)N2` [GGK-445] (H-GGKICTPAGVKCPAALPCCPGLRCIGGVNNKVCR-OH; disulfide 5-19, 12-24, 18-33; N-terminus and C-terminus assumed), the LC50 (as a rule, the concentration lethal to half of the exposed cells or organisms) in the data set with Helicoverpa armigera (setting [3]) is 113.24 ppm and 421.93 ppm; in the data set on Spodoptera littoralis (setting [3]), 283.26 ppm and 626.72 ppm and 371.71 ppm and 201.91 ppm; in the data set with Spodoptera exigua it was 339.21 ppm and 972.5 ppm and 271.32 ppm; in the data set with Heliothis virescens [2] it was 171.15 ppm. For the same molecule, the “mean LC50” value was found to be 657.21 ppm with Helicoverpa armigera (mean of individual tests) and 343.75 ppm in the data set on Spodoptera littoralis (mean of individual tests). The “% feeding reduction compared to control” value amounted to 0.0% with Heliothis virescens [1] (dose 0.15 ppm); 0.0% in the data set on Heliothis virescens [1] (dose 0.46 ppm); 0.0% with Heliothis virescens [1] (dose 1.37 ppm); 6.4% in the data set with Heliothis virescens [1] (dose 4.12 ppm); 6.4% with Heliothis virescens [1] (dose 12.35 ppm); 25.1% in the data set with Heliothis virescens [1] (dose 37.04 ppm). Moreover, the “% feeding reduction compared to control” value in the data set on Heliothis virescens [1] (dose 111.11 ppm) is listed as 50.1%; in the data set on Heliothis virescens [1] (dose 333.33 ppm), 62.5%; in the data set on Heliothis virescens [1] (dose 1000 ppm), 81.3%.

As to “Y1945F - synthesised, acetylated-445: insecticidal peptide obtainable from the fungus Paecilomyces farinosus, described in WO01/00841; SEQ ID No. 41, synthesised, purified, N-terminal Glycine acetylated (Ac-GKICTPAGVKCPAALPCCPGLRCIGGVNNKVCR; cysteine pairing not given here)”, the “% feeding reduction compared to control” value turned out to be 0.0% in the data set on Heliothis virescens [1] (dose 0.15 ppm); 0.0% in the data set with Heliothis virescens [1] (dose 0.46 ppm); 0.0% in the data set with Heliothis virescens [1] (dose 1.37 ppm); 43.8% in the data set on Heliothis virescens [1] (dose 4.12 ppm); 68.8% with Heliothis virescens [1] (dose 12.35 ppm); 68.8% with Heliothis virescens [1] (dose 37.04 ppm). The “% feeding reduction compared to control” value was 83.8% in the data set on Heliothis virescens [1] (dose 111.11 ppm), 88.8% in the data set on Heliothis virescens [1] (dose 333.33 ppm) and 91.3% with Heliothis virescens [1] (dose 1000 ppm). Besides, the corrected % kill is on record as 0.0% in the data set on Heliothis virescens [1] (dose 0.15 ppm); 5.6% with Heliothis virescens [1] (dose 0.46 ppm); 13.0% in the data set on Heliothis virescens [1] (dose 1.37 ppm); 48.1% in the data set on Heliothis virescens [1] (dose 4.12 ppm); 75.9% in the data set with Heliothis virescens [1] (dose 12.35 ppm); 72.2% with Heliothis virescens [1] (dose 37.04 ppm). Besides, the corrected % kill was 98.1% in the data set on Heliothis virescens [1] (dose 111.11 ppm), 98.1% in the data set with Heliothis virescens [1] (dose 333.33 ppm) and 100.0% in the data set on Heliothis virescens [1] (dose 1000 ppm).
